How the values were obtained:
[1] = system: human ApoA-I promoter; assay: ApoA-I promoter induction in HepG2 liver cells (pAI.474-Luc luciferase reporter); assay type: cell-based; conditions: average values at 15 μM, 48 hours incubation
How it was run: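 HepG2 stably transfected with pAI.474-Luc, starved 24 h in MEM + 0.5% FBS, then treated with compounds at final 0–100 μM for 48 h. Luciferase activity in lysates, normalized to Bradford protein.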

[2] = system: human ApoA-I promoter; assay: ApoA-I promoter induction in Caco-2 intestinal cells (pAI.474-Luc luciferase reporter); assay type: cell-based; conditions: Caco-2 cells, 15 μM, 48 hours incubation, luciferase activity vs control samples
How it was run: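 Caco-2 cells stably carrying the human ApoA-I promoter–firefly luciferase construct (pAI.474-Luc) were starved 24 h in 0.5% FBS medium, then exposed to compound at 0 to 100 μM final for 48 h at 37° C. Luciferase activity in lysates was normalized to Bradford protein and compared with solvent-only and untreated controls.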

O=c1cc(-c2ccc(O)cc2)oc2ncccc12 [Example 34, 2-(4-Hydroxy-phenyl)-pyrano[2,3-b]pyridin-4-one]
ApoA-I Promoter Induction [1]: increased
ApoA-I Promoter Induction [2]: increased

Source: US8093273B2, “Flavanoids and isoflavanoids for the prevention and treatment of cardiovascular diseases” (Resverlogix Corp., priority 2004, dated 2012)
